Measured values reported in US4368203A, “Antibiotics and derivatives thereof having β-lactamase inhibitory activity and production thereof” (priority 1977, dated 1983).
≈ marks a conversion by molar mass, not a printed value. Entries after “also recorded” stand apart in the source; their conditions may differ. Where two headings read alike, the source gives them in different places.

Assays:
[1] = test system: β-lactamase-producing, β-lactam-resistant bacteria; test: Increase of the antibiotic activity of other antibiotics (summary in words); assay type: cell-based; conditions: β-lactamase-producing bacteria such as Proteus vulgaris, Serratia marcescens
Procedure: (§1) 10 ml of 2.5 folds diluted nutrient agar (pH 7.0) containing 50 μg/ml of penicillin G or cephaloridine was seeded with the β-lactamase producing and β-lactam-resistant microorganisms and poured in a 9 cm Petri dish to provide the bio-assay agar plate. […] A control assay plate was similarly prepared without penicillin G or cephaloridine. As reference antibiotics, 10,000 μg/ml of penicillin G or 20 μl of cephaloridine were disc-assayed under the same conditions.
(§2) Cepholoridine was added to a 2.5-times diluted nutrient agar, pH 7.0 and the medium was inoculated with a β-lactam-producing strain that produceds β-lactamase. Ten ml of the medium was spread and solidified in a petri dish of 9 cm in diameter to prepare an assay plate. […] Each 20 μl of the solution and its 2- and 4-times diluted solutions was soaked in a pulp disc of 8 mm in diameter. To the surface of the above nutrient agar was placed the pulp disc and the size of the growth inhibitory zone around the disc was examined after incubation at 35° C. for 18 hours. […] In addition, for the comparison, a similar experiment was also performed with a pulp disk soaked with 20 μl of 10,000 μg/ml Penicillin G or Cepholoridine solution in place of the antibiotic PS-7.

[2] = Stability (general statements); assay type: physicochemical; conditions: general statement
[3] = test system: Proteus vulgaris P-5; test: Potentiating and synergistic effect, pulp disc inhibition zone on agar plate; assay type: cell-based; conditions: for Diameter of inhibitory zone, No addition / Diameter of inhibitory zone, Cephaloridine-added: Table 8; for Diameter of inhibitory zone, No addition: medium without cephaloridine; for Diameter of inhibitory zone, Cephaloridine-added: cephaloridine in the agar
Procedure: as §1, §2

[4] = Acute toxicity, intraperitoneal administration; assay type: in vivo, DDY male mice
[5] = test system: Enterobacter cloacae E-16; test: MIC, broth dilution method; assay type: cell-based; conditions: Enterobacter cloacae, read-out: Minimum inhibitory concentration
Procedure: Sodium salt of the antibiotic PS-7 was dissolved and diluted with the BRAIN HEART INFUSION BROTH "Eiken" at a concentration between 5 μg/ml and 100 μg/ml. The solution was further diluted with the same medium to obtain a series of geometric concentrations. To the serial dilutions were added the seed cultures prepared by shaking culture of various test microorganisms shown in Tab. 5 in the BRAIN HEART INFUSION GROTH at 28° C. for 18 hours, the final cell count being about 1×10^5 /ml. […] The lowest concentration at which no cell growth was observed was the minimum inhibitory concentration of the antibiotic PS-7 on the test microorganism. […] The minimum inhibitory concentrations on test strains were determined in the same manner as mentioned above.

[6] = Solubility; assay type: physicochemical; conditions: antibiotic (sodium salt); for Solubility in organic solvents: solvents named in the value
Description: The results are as shown as below:
The results are as shown below:

[7] = test system: Alcaligenes faecalis B-326; test: MIC, broth dilution method; assay type: cell-based; conditions: Alcaligenes faecalis, B326, read-out: Minimum inhibitory concentration
Procedure: (§3) Sodium salt of the antibiotic PS-7 was dissolved and diluted with the BRAIN HEART INFUSION BROTH "Eiken" at a concentration between 5 μg/ml and 100 μg/ml. The solution was further diluted with the same medium to obtain a series of geometric concentrations. To the serial dilutions were added the seed cultures prepared by shaking culture of various test microorganisms shown in Tab. 5 in the BRAIN HEART INFUSION GROTH at 28° C. for 18 hours, the final cell count being about 1×10^5 /ml. […] The lowest concentration at which no cell growth was observed was the minimum inhibitory concentration of the antibiotic PS-7 on the test microorganism. […] . The minimum inhibitory concentrations on test strains were determined in the same manner as mentioned above. […] For the comparison, the results on the known antibiotics Cephazolin and Cefoxitin are also given in the same table.

[8] = test system: Citrobacter freundii E-9; test: MIC, broth dilution method; assay type: cell-based; conditions: Citrobacter freundii, read-out: Minimum inhibitory concentration
Procedure: as §3

[9] = disc x2 (2-times diluted PS-7 solution)
[10] = disc x4 (4-times diluted PS-7 solution)

In the case of `CC(=O)NCCSC1=C(C(=O)O)N2C(=O)C(C(C)C)C2C1` (stereo not drawn) [Antibiotic PS-6], the “Synergistic enhancement of the activity of penicillin G or cephaloridine (β-lactam antibiotics)” value [1] is reported as “showed clearly the synergistic effect; also recorded: ability to increase the antibiotic activity of other antibiotics”, the Stability [2] is reported as “somewhat labile; also recorded: more stable in the salt form than in the free acid state” and the zone of inhibition at 240 µg/mL ([3]; Proteus vulgaris, P5, Table 6, plate without penicillin G or cephaloridine, 8 mm disc, 20 μl, PS-6 240 μg/ml, reference antibiotics 10,000 μg/ml, 35° C. 18 hours, read-out: Inhibition zone, Control) is reported as 14 mm. For the same molecule, the “Inhibition zone, with cephaloridine” value ([3]; Table 6, agar containing 50 μg/ml of cephaloridine, disc 20 μl, PS-6 240 μg/ml, reference antibiotics 10,000 μg/ml) was 28.5 mm, the “Inhibition zone, with penicillin G” value ([3]; Table 6, agar containing 50 μg/ml of penicillin G, disc 20 μl, PS-6 240 μg/ml, reference antibiotics 10,000 μg/ml) was 30.0 mm and the Acute toxicity ([4]; mice, 500 mg/kg) was “no toxicity”. The Acute toxicity ([4]; mice, 500 mg/kg, listed as PS-6 sodium salt) was “No acute toxicity”, the MIC ([5]; E16, 20 h, Table 5, betalactamase producer) was 25 µg/mL (≈ 80 µM) and the Solubility in water [6] was “soluble in water at pH 6 to 9”. The “Solubility in organic solvents” value [6] was “substantially insoluble in benzene, acetone and ethylacetate”, the MIC ([7]; Table 5, 35° C. 20 hours) was 1.56 µg/mL (≈ 4.99 µM) and the MIC ([8]; E9, 20 h, Table 5, betalactamase producer) was 12.5 µg/mL (≈ 40 µM).

For `CCC1C(=O)N2C(C(=O)O)=C(SC=CNC(C)=O)CC12` (stereo not drawn) [Antibiotic PS-7], the “Synergistic enhancement of the activity of penicillin G or cephaloridine (β-lactam antibiotics)” value [1] was “ability to enhance antimicrobial activity of other antibiotics; also recorded: evident enhancement of antimicrobial activity”, the Stability [2] was “somewhat labile; also recorded: more stable in the salt form than in the free acid state” and the “Diameter of inhibitory zone, No addition” value ([3]; disc x1 (undiluted PS-7 solution, 50 μg/ml or 29 μg/ml, 20 μl)) was 0.0 mm. For the same molecule, the “Diameter of inhibitory zone, Cephaloridine-added” value ([3]; disc x1 (undiluted PS-7 solution, 20 μl)) was 19.0 mm, the “Diameter of inhibitory zone, Cephaloridine-added” value [3, 9] was 15.0 mm and the “Diameter of inhibitory zone, No addition” value [3, 9] was 0.0 mm. For the same molecule, the “Diameter of inhibitory zone, Cephaloridine-added” value [3, 10] was 11.0 mm, the “Diameter of inhibitory zone, No addition” value [3, 10] was 0.0 mm and the Acute toxicity ([4]; DDY male mice, dose not given) was “No acute toxicity”. For the same molecule, the Acute toxicity ([4]; mice, 500 mg/kg) was “no acute toxicity”, the MIC ([5]; E16, Table 7, no unit in the head, lactamase-producing strain) was 6.25 µg/mL (≈ 21.1 µM) and the Solubility in water [6] was “Soluble in water at pH6-9”. The “Solubility in organic solvents” value [6] was “practically insoluble in benzene, acetone and ethyl acetate”, the MIC ([7]; Table 7, no unit in the head) was 0.78 µg/mL (≈ 2.63 µM) and the MIC ([8]; E9, Table 7, no unit in the head, lactamase-producing strain) was 3.13 µg/mL (≈ 10.6 µM).
